According to US20140366219A1, “Increasing Soybean Defense Against Pests” (priority 2011, published 2014):
Where “and” joins values, the source holds several entries; their conditions need not be identical. Identical values can stand only once.

T1: GmSAMT1 (Glycine max, UniProt B5A7G5)
T1 sequence (B5A7G5 1-370): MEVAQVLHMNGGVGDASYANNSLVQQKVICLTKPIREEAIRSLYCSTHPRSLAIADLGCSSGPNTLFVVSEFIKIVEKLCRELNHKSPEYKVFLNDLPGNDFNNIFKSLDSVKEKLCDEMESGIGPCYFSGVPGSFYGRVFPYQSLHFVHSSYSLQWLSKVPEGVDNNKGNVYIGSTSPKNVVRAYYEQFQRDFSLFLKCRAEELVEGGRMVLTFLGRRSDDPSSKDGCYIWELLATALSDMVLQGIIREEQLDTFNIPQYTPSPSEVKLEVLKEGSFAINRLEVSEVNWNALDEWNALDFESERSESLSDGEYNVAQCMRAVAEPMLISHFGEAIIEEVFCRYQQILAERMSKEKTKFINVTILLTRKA


Substrate: O=C(O)c1ccccc1O
Experiment: Determination of kinetic parameters of GmSAMT1 (Lineweaver-Burk)
Assay type: biochemical, soybean
Details: other: SA varied 2 to 150 μM, SAM 200 μM, 25° C., 30 min
Procedure: (§1) A 50 μl volume containing 50 mM Tris-HCl, pH 7.5, 1 mM SA, and 3 μM ^14C-SAM with a specific activity of 51.4 mCi/mmol (Perkin-Elmer, Boston, Mass.) was used. The assay was initiated by addition of SAM, maintained at 25° C. for 30 min, and stopped by the addition of ethyl acetate (150 μl). After phase separation by 1 min centrifugation at 14,000 g, the upper organic phase was counted using a liquid scintillation counter (Beckman Coulter, Fullerton, Calif.). The radiation counts in the organic phase indicated the amount of synthesized MeSA. Substrate specificity assay was also performed for recombinant GmSAMT1, with a range of substrates including SA, benzoic acid, anthranilic acid, 3-hydroxybenzoic acid, 4-hydroxybenzoic acid, nicotinic acid, p-coumaric acid, caffeic acid, cinnamic acid, vanallic acid, jasmonic acid (JA), gibberellic acid, indole-3-acetic acid, and 2,4-dichlorophenoxyacetic acid. The activity with SA was set at 100%. Three independent assays were performed for each compound.
Appropriate enzyme concentrations and incubation time were determined in time course assays to make sure that the reaction velocity was linear during the assay period. Lineweaver-Burk plots yielded apparent Km values. To determine the Km for SA, concentrations of SA were independently varied from 2 to 150 μM, while SAM was held constant at 200 μM. […]

| Molecule | Km |
| --- | --- |
| GmSAMT1 (Glycine max) (protein) MEVAQVLHMNGGVGDASYANNSLVQQKVICLTKPIREEAIRSLYCSTHPRSLAIADLGCSSGPNTLFVVSEFIKIVEKLCRELNHKSPEYKVFLNDLPGNDFNNIFKSLDSVKEKLCDEMESGIGPCYFSGVPGSFYGRVFPYQSLHFVHSSYSLQWLSKVPEGVDNNKGNVYIGSTSPKNVVRAYYEQFQRDFSLFLKCRAEELVEGGRMVLTFLGRRSDDPSSKDGCYIWELLATALSDMVLQGIIREEQLDTFNIPQYTPSPSEVKLEVLKEGSFAINRLEVSEVNWNALDEWNALDFESERSESLSDGEYNVAQCMRAVAEPMLISHFGEAIIEEVFCRYQQILAERMSKEKTKFINVTILLTRKA | 32.9 ± 1.7 µM and 46.2 ± 4.2 µM |

Tested on: SCN race 2
Experiment: Nematode infection and demographics assay in transgenic soybean hairy roots
Assay type: in vivo, Heterodera glycines
Details: TN02-275 background; susceptibility of vector control in susceptible background set at 100%
Excerpt: The soybean hairy root transformation system by infection with A. rhizogenes harboring the target genes were modified and used to study soybean resistance against SCN. A. rhizogenes K599 harboring the target gene, vector control and A. rhizogenes K599 alone were used to inoculate the TN02-275 soybeans, which are susceptible to SCN race 2. To better evaluate the resistance of the target gene, A. rhizogenes harboring the vector control and A. rhizogenes K599 alone were also used to inoculate the TN02-226 soybeans, which are resistant to SCN race 2. Generation of soybean hairy roots was modified as follows: First, soybean seeds were sterilized with chlorine gas. Second, a single layer of mature soybean seeds with intact seed coats were placed in open Petri dish, which was put in a bell jar desiccator within a fume hood. A beaker with 100 ml bleach was also placed in the desiccator and added 5 ml concentrated (12N) HCl along the side of the beaker. Then the seeds were kept in the closed desiccator immediately and maintained in the chlorine gas atmosphere overnight (about 16 h). After sterilization, seeds were transferred to the autoclaved filter paper moistened with sterilized distilled water in the Petri dishes for germination in a laminar flow hood. The germinated soybean seeds were sowed in sterilized vermiculite and six seeds were grown in each cell of 18-cell germination tray. The overnight cultured bacteria lawn of A. rhizogenes K599 with binary vector pJL-OFP, pJL-OFP-35S::GUS or pJL-OFP-35S::GmSAMT1 from LB medium plate containing […] kanamycin, or a culture of A. rhizogenes K599 lacking the binary vector grown in LB medium without any antibiotics was collected and suspended in 1 ml of sterile distilled water, respectively. Soybean cotyledonary nodes and upper hypocotyls of 5-day-old seedlings with unfolded cotyledons were stabbed three times by the syringe containing the bacterial suspension. In the first week, the trays were covered with the sterile transparent lids to retain high humidity. In the subsequent three weeks, plants were transferred into pots and the A. rhizogenes wounding sites were covered by wet sterile vermiculite to continually keep high humidity. Each day soybean plants were watered using sterile B&D solution containing 1 mM CaCl2, 0.5 mM KH2PO4, 10 μM Fe-citrate, 0.25 mM MgSO4, 0.25 mM K2SO4, 1 μM MnSO4, 2 μM H3BO4, 0.5 μM ZnSO4, 2 μM CuSO4, 0.1 μM CoSO4, 0.1 μM Na2MoO4, and 1 mM KNO3. The growth conditions for soybean plants were 12 h light/12 h dark at 28° C./25° C. with irradiance from fluorescent bulbs at 150-200 μmol m^−2·s^−1. After about four weeks, the hairy roots grew to approximately 10 cm in length. Soybean transgenic roots were detected based on OFP expression, using a fluorescence stereomicroscope (Olympus SZX12 fluorescence microscope and OFP filter). The tap root and non-transgenic roots were excised under the wounding site. Transgenic roots harboring pJL-OFP-35S::GUS screened by OFP signal were immersed in GUS solution (1 mM X-Gluc), 0.5 mM potassium ferrocyanide, 0.1% (v/v) TRITON™ X-100, 100 mM sodium phosphate buffer pH 7.0), and incubated at 37° C. overnight. In the following day, the X-Gluc solution was discarded. The roots were washed repeatedly with 70% ethanol to remove chlorophyll. Transgenic roots with visual GUS stain were recorded.
To easily compare the SCN infection, one transgenic root was left for the SCN inoculation. […]

| Molecule | reduction of susceptibility |
| --- | --- |
| GmSABP2-1: soybean methyl salicylate esterase gene (SEQ ID NO: 2), over-expressed in transgenic hairy roots (nucleic acid, Glycine Max) DNA: ATGGGTTCACAAAATTGTATGGATAGGAAGCACTATGTTCTGGTGCATGGGGCATGCCATGGAGCTTGGTGTTGGTATAAGCTCAAGCCACGCTTGGAATCTGCAGGCCATAAGGTCACAGTACTTGACCTTGCAGCTTCTGGAACCAACATGAAGAAAATTGAAGATGTTGATACTTTCTCAGAGTATTCTGCGCCTTTGTTGCAGCTAATGGCCACAATTCCCTCAAATGAGAAGTTAGTTCTAGTTGGTCACAGCCTTGGAGGGCTGAACATAGCACTTGCAATGGAGAAATTCCCAGAAAAGGTAGCAGTTGGTGTTTTCTTAACAGCTTTTGCTCCAGACACTGAACACCACCCATCTTATGTCTTGGAAAAGTACAATGAGAGGACCCCGTTAGCTGCATGGTTAGACACTGAATTTGCTCCAAGCGGAAACAAAACATCAATGTTCTTCGGCCCCAACTTCTTGTCCGACAAGCTCTACCAACTGTCCCCTATTGAGGACTTGGAATTGGCCAAGACTTTAGCAAGGCCATCATCGCTCTTCATGGAAGACTTGACTAAACAAAAGAACTTCTCCAAAGAGGGATATGGGTCAGTTCCACGTGCCTTTATTGTTTGCACGGAGGACCTTGGAATTCCATTGGAATATCAGCTCTTGATGATCCAAAATGTTGGGTTCAATGACGTTGTAGAGGTCAAAGACGCAGATCATATGGTTATGCTTTGCAAGCCACAAGAACTATTCGATTCCCTCCAGCAGATAGCGACTAAATATGCATGA | 84.5% |

Molecular target: T1, GmSAMT1
Experiment: Radiochemical SAMT activity assay, substrate specificity of recombinant GmSAMT1
Assay type: biochemical, soybean
Details: all substrates at 1 mM; activity with salicylic acid set at 100%; average of three measurements
Procedure: as §1

| Molecule | Relative activity of GmSAMT1 with substrate |
| --- | --- |
| O=C(O)COc1ccc(Cl)cc1Cl [2,4-Dichlorophenoxyacetic acid, 2,4-dichlorophenoxyacetic acid] | 0% |
| O=C(O)c1cccc(O)c1 [3-Hydroxybenzoic acid, 3-hydroxybenzoic acid] | 1.8% |
| O=C(O)c1ccc(O)cc1 [4-Hydroxybenzoic acid, 4-hydroxybenzoic acid] | 0% |
| Nc1ccccc1C(=O)O [Anthranilic acid, anthranilic acid] | 9.3% |
| O=C(O)c1ccccc1 [Benzoic acid, benzoic acid] | 16.9% |
| O=C(O)/C=C/c1ccc(O)c(O)c1 [Caffeic acid, caffeic acid] | 0% |
| O=C(O)C=Cc1ccccc1 [Cinnamic acid, cinnamic acid] | 0% |
| C=C1C[C@]23C[C@@]1(O)CC[C@H]2[C@@]12C=C[C@H](O)[C@@](C)(C(=O)O1)[C@H]2[C@@H]3C(=O)O [Gibberellic acid, gibberellic acid] | 0% |
| O=C(O)Cc1c[nH]c2ccccc12 [Indole-3-acetic acid, indole-3-acetic acid] | 0% |
| CC/C=C\C[C@H]1C(=O)CC[C@@H]1CC(=O)O [Jasmonic acid, jasmonic acid] | 0% |
| O=C(O)c1cccnc1 [Nicotinic acid, nicotinic acid] | 0% |
| O=C(O)c1ccccc1O [Salicylic acid, salicylic acid] | 100% |
| COc1cc(C(=O)O)ccc1O [Vanallic acid, vanallic acid] | 0% |
| O=C(O)/C=C/c1ccc(O)cc1 [p-Coumaric acid, p-coumaric acid] | 0% |

Same assay, conditions: all substrates at 1 mM; activity with salicylic acid set at 100%; average of three measurements; listed as JA

| Molecule | Relative activity of GmSAMT1 with substrate |
| --- | --- |
| CC/C=C\C[C@H]1C(=O)CC[C@@H]1CC(=O)O [Jasmonic acid, jasmonic acid] | no activity was detected |

Same assay, conditions: all substrates at 1 mM; activity with salicylic acid set at 100%; average of three measurements; listed as gibberellic acid

| Molecule | Relative activity of GmSAMT1 with substrate |
| --- | --- |
| C=C1C[C@]23C[C@@]1(O)CC[C@H]2[C@@]12C=C[C@H](O)[C@@](C)(C(=O)O1)[C@H]2[C@@H]3C(=O)O [Gibberellic acid, gibberellic acid] | no activity was detected |

Same assay, conditions: all substrates at 1 mM; activity with salicylic acid set at 100%; average of three measurements; listed as indole-3-acetic acid

| Molecule | Relative activity of GmSAMT1 with substrate |
| --- | --- |
| O=C(O)Cc1c[nH]c2ccccc12 [Indole-3-acetic acid, indole-3-acetic acid] | no activity was detected |

Molecular target: T1, GmSAMT1
Experiment: Effects of metal ions on activity of GmSAMT1
Assay type: biochemical, soybean
Details: chloride salts at 5 mM final concentration; control without metal ion set at 1.0
Procedure: as §1
Appropriate enzyme concentrations and incubation time were determined in time course assays to make sure that the reaction velocity was linear during the assay period. Lineweaver-Burk plots yielded apparent Km values. To determine the Km for SA, concentrations of SA were independently varied from 2 to 150 μM, while SAM was held constant at 200 μM. Assays were conducted at 25° C. for 30 min, as described in SAMT activity assay. The optimal pH for GmSAMT1 was assayed from pH 6.0 to pH 9.0, and optimal reaction of temperature was assayed ranging from 0° C. to 60° C. Effects of metal ions on activity of GmSAMT1 were assayed with a range of metal ions, including K^+, Cu^2+, Zn^2+, Fe^2+, Fe^3+, Mn^2+, Ca^2+, Na^+, NH4^+, and Mg^2+, in the form of chloride salts at 5 mM final concentrations.

| Molecule | effect of metal ion on GmSAMT1 activity compared with control |
| --- | --- |
| [Ca+2].[Cl-].[Cl-] [Ca^2+] | moderately inhibited |
| [Cl][Cu][Cl] [Cu^2+] | no activity |
| [Cl][Fe][Cl] [Fe^2+] | no activity |
| [Cl-].[K+] [K] | double activity |
| [Cl-].[Cl-].[Mg+2] [Mg^2+] | minimal effect |
| [Cl][Mn][Cl] [Mn^2+] | moderately inhibited |
| Cl.N [NH4^+] | minimal effect |
| [Cl-].[Na+] [Na^+] | minimal effect |
| [Cl-].[Cl-].[Zn+2] [Zn^2+] | no activity |
